ChEMBL document CHEMBL1201862, “PubChem BioAssay data set” (2004)
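A five-concentration, 48-hour dose response in 96-well plates underlies each endpoint, interpolated linearly between surrounding concentrations. GI50 is the concentration that inhibits growth by half.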 Active and inactive are the calls of the source. Rule as the data show it: active = GI50 up to about 1.1 µM and inactive = higher.

Assays:
Assay in all cases: DTP human tumour cell line panel, 48 h
786-0 = tested on: 786-0
A498 = tested on: A498
A549 = tested on: A549
ACHN = tested on: ACHN
BT-549 = tested on: BT-549
CAKI-1 = tested on: CAKI-1
CCRF-CEM = tested on: CCRF-CEM
COLO 205 = tested on: COLO 205
DU-145 = tested on: DU-145
EKVX = tested on: EKVX
HCT-116 = tested on: HCT-116
HCT-15 = tested on: HCT-15
HL-60 = tested on: HL-60
HOP-62 = tested on: HOP-62
HOP-92 = tested on: HOP-92
HT-29 = tested on: HT-29
Hs-578T = tested on: Hs-578T
IGROV-1 = tested on: IGROV-1
K562 = tested on: K562
KM12 = tested on: KM12
LOX IMVI = tested on: LOX IMVI
M14 = tested on: M14
MCF7 = tested on: MCF7
MDA-MB-231 = tested on: MDA-MB-231
MDA-MB-435 = tested on: MDA-MB-435
MDA-N = tested on: MDA-N
Malme-3M = tested on: Malme-3M
NCI-H226 = tested on: NCI-H226
NCI-H23 = tested on: NCI-H23
NCI-H460 = tested on: NCI-H460
NCI-H522 = tested on: NCI-H522
NCI/ADR-RES = tested on: NCI/ADR-RES
OVCAR-3 = tested on: OVCAR-3
OVCAR-4 = tested on: OVCAR-4
OVCAR-5 = tested on: OVCAR-5
OVCAR-8 = tested on: OVCAR-8
PC-3 = tested on: PC-3
RPMI-8226 = tested on: RPMI-8226
RXF 393 = tested on: RXF 393
SF-268 = tested on: SF-268
SF-295 = tested on: SF-295
SF-539 = tested on: SF-539
SK-MEL-28 = tested on: SK-MEL-28
SK-MEL-2 = tested on: SK-MEL-2
SK-MEL-5 = tested on: SK-MEL-5
SN12C = tested on: SN12C
SNB-19 = tested on: SNB-19
SR = tested on: SR
SW-620 = tested on: SW-620
T47D = tested on: T47D
TK-10 = tested on: TK-10
U-251 = tested on: U-251
UACC-257 = tested on: UACC-257
UACC-62 = tested on: UACC-62
UO-31 = tested on: UO-31
HCC 2998 = tested on: HCC 2998
MOLT-4 = tested on: MOLT-4
SK-OV-3 = tested on: SK-OV-3
SNB-75 = tested on: SNB-75

Measured: GI50

CCOC(=O)CNC(=O)C(CSCC1C(=O)Nc2ccccc21)NC(=O)CCC(N)C(=O)OCC (stereo not given)
active: CAKI-1 0.745 µM | CCRF-CEM 0.269 µM | HCT-116 0.551 µM | K562 0.242 µM | LOX IMVI 0.46 µM | MCF7 1.07 µM | NCI/ADR-RES 1.08 µM | SF-539 0.247 µM | SR 0.24 µM
1.04 µM: HCT-15
inactive: 786-0 1.63 µM | A498 3.12 µM | A549 2.34 µM | ACHN 1.62 µM | BT-549 2.44 µM | COLO 205 1.24 µM | DU-145 3.75 µM | EKVX 1.75 µM | HL-60 2.36 µM | HOP-62 2.1 µM | HOP-92 1.25 µM | HT-29 1.55 µM | Hs-578T 4.21 µM | IGROV-1 1.15 µM | KM12 2.89 µM | M14 1.84 µM | MDA-MB-231 1.58 µM | MDA-MB-435 1.32 µM | MDA-N 1.79 µM | Malme-3M 1.88 µM | NCI-H226 1.93 µM | NCI-H23 2.26 µM | NCI-H460 3.28 µM | NCI-H522 1.63 µM | OVCAR-3 2.01 µM | OVCAR-4 2.78 µM | OVCAR-5 1.84 µM | OVCAR-8 2.81 µM | PC-3 1.88 µM | RPMI-8226 1.27 µM | RXF 393 1.19 µM | SF-268 1.86 µM | SF-295 2.77 µM | SK-MEL-28 1.68 µM | SK-MEL-2 1.87 µM | SK-MEL-5 1.6 µM | SN12C 1.52 µM | SNB-19 7.46 µM | SW-620 1.19 µM | T47D 5.65 µM | TK-10 1.62 µM | U-251 1.31 µM | UACC-257 4.16 µM | UACC-62 1.57 µM | UO-31 1.23 µM

C=C(C)c1nc(C#N)c(N)o1
> 100 µM: HCT-15
inactive: 786-0 > 100 µM | A549 > 100 µM | ACHN > 100 µM | BT-549 > 100 µM | CAKI-1 > 100 µM | CCRF-CEM > 100 µM | COLO 205 > 100 µM | DU-145 > 100 µM | EKVX > 100 µM | HCC 2998 > 100 µM | HCT-116 > 100 µM | HOP-62 > 100 µM | HT-29 > 100 µM | Hs-578T > 100 µM | IGROV-1 36.3 µM | K562 > 100 µM | KM12 > 100 µM | LOX IMVI > 100 µM | M14 > 100 µM | MCF7 > 100 µM | MDA-MB-231 > 100 µM | MDA-MB-435 > 100 µM | MDA-N > 100 µM | MOLT-4 > 100 µM | Malme-3M > 100 µM | NCI-H226 > 100 µM | NCI-H23 > 100 µM | NCI-H460 > 100 µM | NCI/ADR-RES > 100 µM | OVCAR-3 > 100 µM | OVCAR-4 > 100 µM | OVCAR-5 > 100 µM | OVCAR-8 > 100 µM | PC-3 > 100 µM | RPMI-8226 > 100 µM | RXF 393 > 100 µM | SF-268 > 100 µM | SF-295 > 100 µM | SF-539 > 100 µM | SK-MEL-28 > 100 µM | SK-MEL-2 > 100 µM | SK-MEL-5 > 100 µM | SK-OV-3 > 100 µM | SN12C > 100 µM | SNB-19 > 100 µM | SR > 100 µM | SW-620 > 100 µM | T47D > 100 µM | TK-10 > 100 µM | U-251 > 100 µM | UACC-257 > 100 µM | UO-31 > 100 µM

N#Cc1c(-c2ccccc2)c(C#N)c(=S)n(C2OC(CO)C(O)C(O)C2O)c1O (stereo not given)
inactive: 786-0 > 100 µM | A498 > 100 µM | A549 > 100 µM | ACHN > 100 µM | BT-549 > 100 µM | CAKI-1 > 100 µM | CCRF-CEM > 100 µM | DU-145 > 100 µM | HL-60 > 100 µM | HOP-62 > 100 µM | HT-29 > 100 µM | Hs-578T > 100 µM | IGROV-1 > 100 µM | K562 > 100 µM | KM12 > 100 µM | LOX IMVI > 100 µM | M14 > 100 µM | MCF7 > 100 µM | MDA-MB-231 > 100 µM | MDA-MB-435 > 100 µM | MDA-N > 100 µM | MOLT-4 > 100 µM | Malme-3M > 100 µM | NCI-H226 > 100 µM | NCI-H23 > 100 µM | NCI-H460 > 100 µM | NCI-H522 > 100 µM | NCI/ADR-RES > 100 µM | OVCAR-3 > 100 µM | OVCAR-5 > 100 µM | OVCAR-8 > 100 µM | PC-3 > 100 µM | RPMI-8226 > 100 µM | RXF 393 > 100 µM | SF-268 > 100 µM | SF-295 > 100 µM | SF-539 > 100 µM | SK-MEL-28 > 100 µM | SK-MEL-2 > 100 µM | SK-MEL-5 > 100 µM | SK-OV-3 > 100 µM | SN12C > 100 µM | SNB-19 > 100 µM | SNB-75 > 100 µM | SR > 100 µM | SW-620 > 100 µM | T47D > 100 µM | TK-10 > 100 µM | UACC-257 > 100 µM | UACC-62 > 100 µM | UO-31 > 100 µM
> 100 µM: HCT-15
